Results taken from patent publication US20030166648A1, “Felbamate derived compounds” (priority 2002, published 2003).

Experiments:
Assay type in all cases: in vivo
[1] = Minimal neurotoxicity (TOX), positional sense and gait and stance tests, rats p.o.; conditions: rat p.o., 30 mg/kg
Source text: (§1) The fluoro derivatives synthesized were submitted to the National Institute of Neurological Disorders and Stroke (NINDS) for evaluation in a standard panel of assays. Two convulsant tests (MES and scMET), and a toxicity screen (rotorod in mice, positional sense and gait in rats) were employed for evaluating the compounds activity as neuroprotecting agents. These testing procedures are described in detail in Molecular and Cellular Targets for Anti-epileptic Drugs, eds. […] The felbamate derivatives were evaluated for anticonvulsant activity following intraperitoneal (i.p.) administration in mice and oral administration in rats.
Rats are examined for behavioral toxicity by the positional sense test and a gait and stance test. […] In the gait and stance test, neurotoxicity is indicated by a circular or zigzag gait, ataxia, abnormal spread of the legs, abnormal posture, tremor hyperactivity, lack of exploratory behavior, somnolence, stupor or catalepsy. […]

[2] = test system: MES-induced seizure spread; test: Maximal electroshock seizure (MES) test, rats p.o.; conditions: for anti-seizure activity in rats (in words): rat models; for MES, number of animals protected/total number tested: rat p.o., 30 mg/kg
Source text: (§2) The fluoro derivatives synthesized were submitted to the National Institute of Neurological Disorders and Stroke (NINDS) for evaluation in a standard panel of assays. Two convulsant tests (MES and scMET), and a toxicity screen (rotorod in mice, positional sense and gait in rats) were employed for evaluating the compounds activity as neuroprotecting agents. These testing procedures are described in detail in Molecular and Cellular Targets for Anti-epileptic Drugs, eds. G. Avanzini, G. Regesta, P. Tanganelli, M. Avoli, 1997, John Libbey & Company Ltd, pp 191-198. The felbamate derivatives were evaluated for anticonvulsant activity following intraperitoneal (i.p.) administration in mice and oral administration in rats.
(§3) The Maximal Electroshock Seizure (MES)
(§4) The MES test is a model for generalized tonic-clonic seizures and is used to identify compounds which prevent seizure spread. The behavioral and electrographic seizures generated in this model are consistent with the human disorder. In the MES test, an electrical stimulus of 0.2 s in duration (50 mA in mice and 150 mA in rat at 60 Hz) was delivered via corneal electrodes primed with an electrolyte solution containing an anesthetic agent. Mice were tested at 30 minutes and 4 hours following doses of 30, 100 and 300 mg/kg of test compound. Rats were tested at time intervals between 0.25 and 4 hours following a standard oral dose of 30 mg/kg. Abolition of the hindlimb tonic extensor component indicates the test compound's ability to inhibit MES-induced seizure spread.
(§5) For the MES and scMET tests the data is presented in the form of the number of animals protected by the administered compound/total number of animals tested. […] Qualitative data was obtained for fluoro felbamate 12 (Tables 1 and 2A), fluoro monocarbamate felbamate 13 (Tables 1 and 2B), and fluorodioxo 16 (Tables 1 and 2C) and for cyclic felbamate 21 (Tables 5 and 6B) and cyclic monocarbamate 22 (Tables 5 and 6A). More extensive quantitative data was also obtained for fluoro felbamate 12 in mice (Table 3) and rats (Table 4).

[3] = Minimal neurotoxicity (TOX), rotorod test, mice i.p.; conditions: mice i.p.
Source text: as §1, with “rats. […]” for “rats.”

[4] = test system: pentylenetetrazol-induced clonic seizures; test: Subcutaneous Metrazol seizure test (scMET), mice i.p.
Source text: as §2
The Subcutaneous (Metrazol) Seizure Test (scMET)
This is a model that primarily identifies compounds that raise seizure threshold. With some minor exceptions, the pharmacological profile of the scMET seizure model is consistent with the human condition. The scMET test utilizes a dose of pentylenetetrazol (85 mg/kg in Carworth Farms No. 1 mice and 70 mg/kg in Sprague-Dawley rats) that induces clonic seizures lasting for a period of at least five seconds in 97% (CD97) of animals tested. At the anticipated time of testing the convulsant is administered subcutaneously. The test compound is administered intraperitoneally in mice and orally in rats. Animals are observed over a 30 minute period. Absence of clonic spasms in the observed time period indicates a compound's ability to abolish the effect of pentylenetetrazol on seizure threshold.
as §5

[5] = test system: MES-induced seizure spread; test: Maximal electroshock seizure (MES) test, mice i.p.; conditions: for MES, number of animals protected/total number tested: mice i.p.
Source text: as §2, §3, §4, §5

seizures = test: NINDS anticonvulsant panel (MES, scMET), overall statements; conditions: overall statement
Source text: as §2, §5

Row | SMILES | TOX, number of animals exhibiting toxic effects/total number tested ([1]; 0.25 h) | TOX, number of animals exhibiting toxic effects/total number tested ([1]; 0.5 h) | TOX, number of animals exhibiting toxic effects/total number tested ([1]; 1.0 h) | TOX, number of animals exhibiting toxic effects/total number tested ([1]; 2.0 h) | TOX, number of animals exhibiting toxic effects/total number tested ([1]; 4.0 h) | anti-seizure activity in rats (in words) [2] | TOX, number of animals exhibiting toxic effects/total number tested ([3]; 30 mg/kg, 0.5 h) | TOX, number of animals exhibiting toxic effects/total number tested ([3]; 30 mg/kg, 4.0 h) | TOX, number of animals exhibiting toxic effects/total number tested ([3]; 100 mg/kg, 0.5 h) | TOX, number of animals exhibiting toxic effects/total number tested ([3]; 100 mg/kg, 4.0 h) | TOX, number of animals exhibiting toxic effects/total number tested ([3]; 300 mg/kg, 0.5 h) | TOX, number of animals exhibiting toxic effects/total number tested ([3]; 300 mg/kg, 4.0 h) | further results
1 | NC(=O)OCC1(c2ccccc2)COC(=O)N1 (stereo not shown) [cyclic felbamate] | 0/4 | 0/4 | 0/4 | 0/4 | 0/4 | potent activity | 0/4 | 0/2 | 0/8 | 0/4 | 0/4 | 0/2 | MES, number of animals protected/total number tested ([2]; 0.25 h): 2/4; MES, number of animals protected/total number tested ([2]; 0.5 h): 2/4; MES, number of animals protected/total number tested ([2]; 1.0 h): 3/4; MES, number of animals protected/total number tested ([2]; 2.0 h): 0/4; MES, number of animals protected/total number tested ([2]; 4.0 h): 3/4; ScMET, number of animals protected/total number tested ([4]; 30 mg/kg, 0.5 h): 0/1; ScMET, number of animals protected/total number tested ([4]; 30 mg/kg, 4.0 h): 0/1; ScMET, number of animals protected/total number tested ([4]; 100 mg/kg, 0.5 h): 0/1; ScMET, number of animals protected/total number tested ([4]; 100 mg/kg, 4.0 h): 0/1; ScMET, number of animals protected/total number tested ([4]; 300 mg/kg, 0.5 h): 0/1; ScMET, number of animals protected/total number tested ([4]; 300 mg/kg, 4.0 h): 0/1; MES, number of animals protected/total number tested ([5]; 30 mg/kg, 0.5 h): 0/1; MES, number of animals protected/total number tested ([5]; 30 mg/kg, 4.0 h): 0/1; MES, number of animals protected/total number tested ([5]; 100 mg/kg, 0.5 h): 0/3; MES, number of animals protected/total number tested ([5]; 100 mg/kg, 4.0 h): 0/3; MES, number of animals protected/total number tested ([5]; 300 mg/kg, 0.5 h): 0/1; MES, number of animals protected/total number tested ([5]; 300 mg/kg, 4.0 h): 0/1
2 | O=C1NC(=O)C(F)(c2ccccc2)CO1 (stereo not shown) [fluoro dioxo, 5-Fluoro-5-phenyl-1,3-oxazinane2,4-dione] | 0/4 | 0/4 | 0/4 | 0/4 | 0/4 | strong anti-seizure activity | 0/4 | 0/2 | 0/8 | 0/4 | 1/4 | 0/2 | anti-seizure activity in mice (in words) ([5]; mice, MES and scMET (Table 1)): inactive
3 | NC(=O)OCC(F)(CO)c1ccccc1 (stereo not shown) [fluoro monocarbamate felbamate, 2-Fluoro-2-phenyl-1,3-propanediol monocarbamate] | 0/4 | 0/4 | 0/4 | 0/4 | 0/4 |  | 0/4 | 0/2 | 3/8 | 0/4 | 2/4 | 0/2 | anti-seizure activity (in words) (seizures): show anti-seizure activity; MES protection (in words) ([5]; mice, 100 mg/kg): moderate MES protection
